Common to all, as to type: in vivo, male Carworth Farms #1 mice or Sprague-Dawley rats
Test [1] is described as follows: Maximal Electroshock Seizure Test. The note with it: for Lowest effective dose, MES (Phase I): Table X. (Protection in the maximal electroshock model is a classic sign of anticonvulsant action.)
A short description of test [2]: Anticonvulsant activity, both or unspecified seizure models. The note with it: for Anticonvulsant activity (in words): running text.
Test [3] is described as follows: Subcutaneous Pentylenetetrazol (Metrazol) Seizure Threshold Test. To be noted: for Lowest effective dose, Metrazol (Phase I): Table X.

The record followed here is US4758555A, “Method for treating convulsions and epilepsy with organic copper compounds” (priority 1986, dated 1988).

Consider `O=C([O-])c1ccccc1O.O=C([O-])c1ccccc1O.[Cu+2].c1ccncc1.c1ccncc1` [Cu(II)(salicylate)2 (pyridine)2], for which the “Anticonvulsant activity, Maximal Electroshock (Phase I)” value in test [1] (Table II, IP) is “I”. Besides, the “Onset and duration of anticonvulsant action (in words)” value in test [2] is listed as “activity representative of a compound with rapid onset”.

Consider `CC(C)c1cc(C(=O)[O-])c(O)c(C(C)C)c1.CC(C)c1cc(C(=O)[O-])c(O)c(C(C)C)c1.[Cu+2]` [Cu(II)(3,5-diisopropylsalicylate)2], for which, in test [2], the “Anticonvulsant activity (in words)” value is “effective in preventing both the Maximal Electroshock and Metrazol-inducedseizures in Phase I studies”.

Take `O.O.O.O=C([O-])c1cc(Br)cc(Br)c1O.O=C([O-])c1cc(Br)cc(Br)c1O.[Cu+2]` [Cu(II)(3,5-dibromosalicylate)2 (H2 O)3]: in test [2], the “Anticonvulsant activity (in words)” value is “effective in preventing both the Maximal Electroshock and Metrazol-inducedseizures in Phase I studies”.

Regarding `CC(C)(C)c1cc(C(=O)[O-])c(O)c(C(C)(C)C)c1.CC(C)(C)c1cc(C(=O)[O-])c(O)c(C(C)(C)C)c1.[Cu+2]` [Cu(II)(3,5-ditertiarybutylsalicylate)2], the “Anticonvulsant activity (in words)” value in test [2] was “effective at the higher doses studied and for prolonged periods of up to 4 hours”; in test [2] (listed as 3,5-ditertiarybutylsalicylate), “effective in preventing both the Maximal Electroshock and Metrazol-inducedseizures in Phase I studies”.

For the compound Cu(II)2 (benzoate)4, the “Anticonvulsant activity (in words)” value in test [2] is “effective in protecting against both Maximal Electroshock and Metrazol-induced seizures”.

Take `CC(C)C[C@H](N)C(=O)[O-].CC(C)C[C@H](N)C(=O)[O-].[Cu+2]` [Cu(II)(L-leucinate)2]: the “Anticonvulsant activity (in words)” value in test [2] was “found to have anticonvulsant activity”.

`CCC1(CCC(C)C)C(=O)[N-]C(=O)NC1=O.CCC1(CCC(C)C)C(=O)[N-]C(=O)NC1=O.[Cu+2].c1c[nH]cn1.c1c[nH]cn1` [Cu(II)(Amobarbital)2 (imidazole)2]: the “Lowest effective dose, MES (Phase I)” value in test [1] (IP, challenge time 30 min) is 600 milligrams per kilogram of bod; in test [1] (IP, challenge time 4 hrs), “I”; in test [1] (SC, challenge time 30 min) it was “I”; in test [1] (SC, challenge time 4 hrs), “I”. Besides, the “Lowest effective dose, Metrazol (Phase I)” value was 300 milligrams per kilogram of bod in test [3] (IP, challenge time 30 min); “I” in test [3] (IP, challenge time 4 hrs); “I” in test [3] (SC, challenge time 30 min); 600 milligrams per kilogram of bod in test [3] (SC, challenge time 4 hrs).

Consider `N[C@@H](Cc1c[nH]c2ccccc12)C(=O)[O-].N[C@@H](Cc1c[nH]c2ccccc12)C(=O)[O-].[Cu+2]` [Cu(II)(L-tryptophanate)2], for which the “Anticonvulsant activity (in words)” value in test [2] is “found to have anticonvulsant activity”.

`CC(=O)Oc1ccccc1C(=O)O` [Aspirin, acetylsalicylate, reference compound]: the “Anticonvulsant activity, Maximal Electroshock” value in test [1] (Table VI, IP) is listed as “I”. For the same compound, in test [3] (Table VI, IP), the “Anticonvulsant activity, Metrazol” value was “I”.

For Cu(II) Salicylidene-L-histidinate, the “Anticonvulsant activity, Maximal Electroshock (Phase I)” value in test [1] (Table IV, IP) is reported as “I”; in test [1] (Table IV, SC), “I”. Further, the “Anticonvulsant activity, Metrazol (Phase I)” value in test [3] (Table IV, IP) was “I”.

Turning to “Cu(II)5-ethyl-5-phenylhydantoin(H2 O)2.5”, the “Lowest effective dose, MES (Phase I)” value in test [1] (IP, challenge time 30 min) is 100 milligrams per kilogram of bod; in test [1] (IP, challenge time 4 hrs), 100 milligrams per kilogram of bod; in test [1] (SC, challenge time 30 min) it was 100 milligrams per kilogram of bod; in test [1] (SC, challenge time 4 hrs), 30 milligrams per kilogram of bod. The “Lowest effective dose, Metrazol (Phase I)” value in test [3] (IP, challenge time 30 min) is reported as 300 milligrams per kilogram of bod; in test [3] (IP, challenge time 4 hrs) it was 100 milligrams per kilogram of bod; in test [3] (SC, challenge time 30 min), 30 milligrams per kilogram of bod; in test [3] (SC, challenge time 4 hrs), 100 milligrams per kilogram of bod.

For the compound `N[C@@H](CO)C(=O)[O-].N[C@@H](CO)C(=O)[O-].[Cu+2]` [Cu(II)(L-serinate)2], the “Anticonvulsant activity (in words)” value in test [2] is on record as “found to have anticonvulsant activity”.

Take Cu(II)(L-glutamate)2: the “Anticonvulsant activity (in words)” value in test [2] is “found to have anticonvulsant activity”.
